Measured values: article PMC11638965, “Leveraging Dual-Ligase Recruitment to Enhance Protein Degradation via a Heterotrivalent Proteolysis Targeting Chimera” (Journal of the American Chemical Society, 2024)
Where “and” joins values, the source holds several entries; their conditions need not be identical. Equal values may be shown once. Entries after “also recorded” stand apart in the source; their conditions may differ. Read-outs that look alike come from different tables or passages of the source. Each block holds one compound with its values, some of them ahead of it.

Tests used:
RKO WT cells = test: cells; format: cell-based, human; settings: for EC50: Homo sapiens
BRD4 = BRD4 (Homo sapiens, UniProt O60885); test: Live cell kinetic HiBiT degradation assay, HiBiT-BRD4 HEK293 cells (parental, CRBN KO, VHL KO); format: cell-based; settings: for λmax BRD4 (degradation rate): HiBiT-BRD4 knock-in HEK293 cells; for on-target BRD4 degradation activity (in words): parental, CRBN KO and VHL KO HiBiT-BRD4 HEK293 cells (Figure S5)
Summary of the method: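 Endogenous N-terminal HiBiT-BRD4 HEK293 cells stably expressing LgBiT (parental, CRBN KO, VHL KO) in CO2-independent medium with Endurazine, pre-equilibrated 3 h at 37 °C. Luminescence read every 7 min for 24 h after PROTAC addition (threefold series), normalized to pre-read and DMSO. Dmax = lowest reading; rate from one-phase decay; Dmax50 from Dmax-vs-concentration fit.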

[1] = WT RKO, 316 pM to 10 μM, n = 3 (Table S4), read-out: EC50 RKO
[2] = HiBiT-BRD4 CRISPR knock-in HEK293 cells, live cell kinetic degradation, 24 h, read-out: Dmax 50 BRD4
[3] = 72 h, 316 pM to 10 μM, 3 days, n = 3 (Figures 5 and 8C, Table S5), read-out: EC50 RKO WT
[4] = 72 h, 500 pM to 10 μM, 3 days (Figure 10, Table S6), read-out: EC50 RKO WT

EC50 (RKO WT cells; [1]): 195 nM
EC50 (BRD4; [2]): 4 nM
λmax BRD4 (degradation rate) (BRD4): 1.69 h⁻¹
Compound: Cc1ncsc1-c1ccc(CNC(=O)[C@@H]2C[C@@H](O)CN2C(=O)[C@@H](NC(=O)COCC(C)(COCCOCCNc2cc3c(cc2F)C(=O)N(C2CCC(=O)NC2=O)C3=O)COCCOCCOCCOC(=O)C[C@@H]2N=C(c3ccc(Cl)cc3)c3c(sc(C)c3C)-n3c(C)nnc32)C(C)(C)C)cc1 (mixture of isomers) [AB3126 (29), (17S)-11-((2-(2-((2-(2,6-dioxopiperidin-3-yl)-6-fluoro-1,3-dioxoisoindolin-5-yl)amino)ethoxy)ethoxy)methyl)-17-((2S,4R)-4-hydroxy-2-((4-(4-methylthiazol-5-yl)benzyl)carbamoyl)pyrrolidine-1-carbonyl)-11,18,18-trimethyl-15-oxo-3,6,9,13-tetraoxa-16-azanonadecyl 2-((S)-4-(4-chlorophenyl)-2,3,9-trimethyl-6H-thieno[3,2-f][1,2,4]triazolo[4,3-a][1,4]diazepin-6-yl)acetate]

EC50 (RKO WT cells; [4]): 48 nM
Compound: Cc1ncsc1-c1ccc([C@H](C)NC(=O)[C@@H]2C[C@H](O)CN2C(=O)[C@@H](NC(=O)COCC(C)(COCCOCCOCCNc2cc3c(cc2F)C(=O)N(C2CCC(=O)NC2=O)C3=O)COCCOCCOCCOC(=O)C[C@@H]2N=C(c3ccc(Cl)cc3)c3c(sc(C)c3C)-n3c(C)nnc32)C(C)(C)C)cc1 (mixture of isomers) [cis-AB3067 (94), (17S)-11-((2-(2-(2-((2-(2,6-dioxopiperidin-3-yl)-6-fluoro-1,3-dioxoisoindolin-5-yl)amino)ethoxy)ethoxy)ethoxy)methyl)-17-((2S,4S)-4-hydroxy-2-(((S)-1-(4-(4-methylthiazol-5-yl)phenyl)ethyl)carbamoyl)pyrrolidine-1-carbonyl)-11,18,18-trimethyl-15-oxo-3,6,9,13-tetraoxa-16-azanonadecyl 2-((S)-4-(4-chlorophenyl)-2,3,9-trimethyl-6H-thieno[3,2-f][1,2,4]triazolo[4,3-a][1,4]diazepin-6-yl)acetate]
on-target BRD4 degradation activity (in words) (BRD4; listed as 94): inactive in CRBN KO cells; also recorded: increase in degradation potency relative to 27 in both parental and VHL KO cells

EC50 (RKO WT cells; [4]): 594 nM
EC50 (RKO WT cells; RKO, span over RKO WT, CRBN KO, VHL KO and CRBN/VHL dKO (Figure 10), read-out: EC50s in each WT, KO and dKO RKO cell line): 522 to 657 nM
Compound: Cc1ncsc1-c1ccc([C@H](C)NC(=O)[C@@H]2C[C@H](O)CN2C(=O)[C@@H](NC(=O)COCC(C)(COCCOCCOCCNc2cc3c(cc2F)C(=O)N(C2CCC(=O)N(C)C2=O)C3=O)COCCOCCOCCOC(=O)C[C@@H]2N=C(c3ccc(Cl)cc3)c3c(sc(C)c3C)-n3c(C)nnc32)C(C)(C)C)cc1 (mixture of isomers) [neg-cis-AB3067 (95), (17S)-11-((2-(2-(2-((6-fluoro-2-(1-methyl-2,6-dioxopiperidin-3-yl)-1,3-dioxoisoindolin-5-yl)amino)ethoxy)ethoxy)ethoxy)methyl)-17-((2S,4S)-4-hydroxy-2-(((S)-1-(4-(4-methylthiazol-5-yl)phenyl)ethyl)carbamoyl)pyrrolidine-1-carbonyl)-11,18,18-trimethyl-15-oxo-3,6,9,13-tetraoxa-16-azanonadecyl 2-((S)-4-(4-chlorophenyl)-2,3,9-trimethyl-6H-thieno[3,2-f][1,2,4]triazolo[4,3-a][1,4]diazepin-6-yl)acetate]
on-target BRD4 degradation activity (in words) (BRD4): no degradation of BRD4 in any of the cell lines

The remaining lines, values behind:

Compound: Cc1ncsc1-c1ccc([C@H](C)NC(=O)[C@@H]2C[C@@H](O)CN2C(=O)[C@@H](NC(=O)COCC(C)(COCCOCCOCCNc2cccc3c2C(=O)N(C2CCC(=O)NC2=O)C3=O)COCCOCCOCCOC(=O)C[C@@H]2N=C(c3ccc(Cl)cc3)c3c(sc(C)c3C)-n3c(C)nnc32)C(C)(C)C)cc1 (mixture of isomers) [AB3066 (24), (17S)-11-((2-(2-(2-((2-(2,6-dioxopiperidin-3-yl)-1,3-dioxoisoindolin-4-yl)amino)ethoxy)ethoxy)ethoxy)methyl)-17-((2S,4R)-4-hydroxy-2-(((S)-1-(4-(4-methylthiazol-5-yl)phenyl)ethyl)carbamoyl)pyrrolidine-1-carbonyl)-11,18,18-trimethyl-15-oxo-3,6,9,13-tetraoxa-16-azanonadecyl 2-((S)-4-(4-chlorophenyl)-2,3,9-trimethyl-6H-thieno[3,2-f][1,2,4]triazolo[4,3-a][1,4]diazepin-6-yl)acetate]
EC50 (RKO WT cells; [1]): 151 nM
EC50 (BRD4; [2]): 3 nM
λmax BRD4 (degradation rate) (BRD4): 2.16 h⁻¹

Compound: Cc1ncsc1-c1ccc([C@H](C)NC(=O)[C@@H]2C[C@@H](O)CN2C(=O)[C@@H](NC(=O)COCC(C)(COCCOCCOCCNc2cc3c(cc2F)C(=O)N(C2CCC(=O)NC2=O)C3=O)COCCOCCOCCOC(=O)C[C@@H]2N=C(c3ccc(Cl)cc3)c3c(sc(C)c3C)-n3c(C)nnc32)C(C)(C)C)cc1 (mixture of isomers) [AB3067 (27), (17S)-11-((2-(2-(2-((2-(2,6-dioxopiperidin-3-yl)-6-fluoro-1,3-dioxoisoindolin-5-yl)amino)ethoxy)ethoxy)ethoxy)methyl)-17-((2S,4R)-4-hydroxy-2-(((S)-1-(4-(4-methylthiazol-5-yl)phenyl)ethyl)carbamoyl)pyrrolidine-1-carbonyl)-11,18,18-trimethyl-15-oxo-3,6,9,13-tetraoxa-16-azanonadecyl 2-((S)-4-(4-chlorophenyl)-2,3,9-trimethyl-6H-thieno[3,2-f][1,2,4]triazolo[4,3-a][1,4]diazepin-6-yl)acetate]
EC50 (RKO WT cells; [3]): 111 nM
EC50 (RKO WT cells; [4]): 73 nM
EC50 (RKO WT cells; RKO WT, 316 pM to 10 μM, n = 6, combination: dBET6 and MZ1 each from 5 μM (Table S7), read-out: EC50 RKO): 49 nM
EC50 (RKO WT cells; [1]): 97.5 nM
cytotoxicity compared with 1:1 mixture of dBET6 and MZ1 (in words) (RKO WT cells; human, 3 days): more cytoxic than the 1:1 mixture of dBET6 and MZ1
fold less Dmax 50 for BRD4 degradation in CRBN KO than in parent HiBiT-BRD4 cells (BRD4; CRBN KO vs parental): 60 fold
EC50 (BRD4; [2]): 0.6 nM and 0.64 nM
λmax (HiBiT-BRD4: CRBN KO) (BRD4; HiBiT-BRD4 HEK293 CRBN KO cells (Figure 9)): 1.0 h⁻¹
EC50 (BRD4; HiBiT-BRD4 HEK293 CRBN KO cells, 5 pM to 3 μM (Figure 9), read-out: Dmax 50 (HiBiT-BRD4: CRBN KO)): 38 nM
λmax (HiBiT-BRD4: VHL KO) (BRD4; HiBiT-BRD4 HEK293 VHL KO cells (Figure 9)): 1.2 h⁻¹
EC50 (BRD4; HiBiT-BRD4 HEK293 VHL KO cells, 5 pM to 3 μM (Figure 9), read-out: Dmax 50 (HiBiT-BRD4: VHL KO)): 23 nM
λmax (HiBiT-BRD4: Parental) (BRD4; HiBiT-BRD4 HEK293 parental cells (Figure 9)): 2.3 h⁻¹
λmax BRD4 (degradation rate) (BRD4): 2.68 h⁻¹
fold less Dmax 50 for BRD4 degradation in VHL KO than in parent HiBiT-BRD4 cells (BRD4; VHL KO vs parental): 40 fold

Compound: Cc1ncsc1-c1ccc(CNC(=O)[C@@H]2C[C@@H](O)CN2C(=O)[C@@H](NC(=O)COCC(COCCOCCOCCNc2cc3c(cc2F)C(=O)N(C2CCC(=O)NC2=O)C3=O)(COCCOCCOCCOC(=O)C[C@@H]2N=C(c3ccc(Cl)cc3)c3c(sc(C)c3C)-n3c(C)nnc32)COCCOCCOCCOC(=O)C[C@@H]2N=C(c3ccc(Cl)cc3)c3c(sc(C)c3C)-n3c(C)nnc32)C(C)(C)C)cc1 (mixture of isomers) [AB3124 (86)]
EC50 (RKO WT cells; [3]): 33 nM
EC50 (BRD4; [2]): 1.1 nM
treatment concentrations with observable hook-effect (BRD4; HiBiT-BRD4 HEK293 cells): ≥ 333 nM
BRD4 degradation rate (in words) (BRD4; HiBiT-BRD4 HEK293 cells (Figure S4)): remarkably slow compared to the rapid degradation mediated by 27
Dmax (BRD4; HiBiT-BRD4 HEK293 cells, read-out: final Dmax less than for 26 and 27): > 10%

Compound: Cc1ncsc1-c1ccc(CNC(=O)[C@@H]2C[C@@H](O)CN2C(=O)[C@@H](NC(=O)COCC(C)(COCCOCCNc2cc3c(cc2F)C(=O)N(C2CCC(=O)NC2=O)C3=O)COCCOCCOC(=O)C[C@@H]2N=C(c3ccc(Cl)cc3)c3c(sc(C)c3C)-n3c(C)nnc32)C(C)(C)C)cc1 (mixture of isomers) [AB3125 (30), (14S)-8-((2-(2-((2-(2,6-dioxopiperidin-3-yl)-6-fluoro-1,3-dioxoisoindolin-5-yl)amino)ethoxy)ethoxy)methyl)-14-((2S,4R)-4-hydroxy-2-((4-(4-methylthiazol-5-yl)benzyl)carbamoyl)pyrrolidine-1-carbonyl)-8,15,15-trimethyl-12-oxo-3,6,10-trioxa-13-azahexadecyl 2-((S)-4-(4-chlorophenyl)-2,3,9-trimethyl-6H-thieno[3,2-f][1,2,4]triazolo[4,3-a][1,4]diazepin-6-yl)acetate]
EC50 (RKO WT cells; [1]): 369 nM
fold increase in degradation of BRD4 (Dmax 50) vs matched pair (BRD4; 23 vs 1, 26 vs 23, 30 vs 2, HiBiT-BRD4 HEK293 cells): 6.7 fold
EC50 (BRD4; [2]): 8.2 nM
λmax BRD4 (degradation rate) (BRD4): 1.76 h⁻¹
